Assay results taken from patent US8309558B2, “Compounds for the treatment of hepatitis C” (Bristol-Myers Squibb Company, priority 2008, dated 2012).
Read-outs that look alike come from different tables or passages of the source.

Legend:
[1] = target: T1, HCV NS5B RdRp genotype 1b (Hepatitis C virus genotype 1b, UniProt Q9WMX2); assay: Standard HCV NS5B RdRp enzyme assay; format: biochemical; conditions: HCV NS5B RdRp genotype 1b, read-out: IC50
T1 construct: The protein was expressed with an 18 amino acid C-terminal truncation to enhance the solubility; made in house; host or cells: E. coli BL21(DE3), pET21a vector
In short: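 Radiometric SPA measuring 3H-UMP incorporation on polyA/biotin-oligo-dT12 (6 nM/180 nM), 0.29 μM total UTP. Enzyme: NS5B 1b lacking last 18 residues, 28 nM final, 30° C for 60 min in 20 mM Hepes pH 7.5, 2.5 mM MgCl2, 2% DMSO. IC50 from seven-point curves.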

HCV replicon cells = assay: HCV replicon FRET / luciferase assay (96-well plates); format: cell-based; conditions: Hepatitis C virus, HCV replicon, read-out: EC50
In short: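 Readout was NS3 protease cleavage of an EDANS/DABCYL FRET peptide (20 μM final) in lysed HCV replicon cells, or Renilla luciferase in reporter replicons. Background came from wells with the highest level of control protease inhibitor. EC50 marked the concentration giving 50% signal reduction.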

[2] = untitled table after Table 1b, values without asterisk

T1 sequence (Q9WMX2 2420-2992): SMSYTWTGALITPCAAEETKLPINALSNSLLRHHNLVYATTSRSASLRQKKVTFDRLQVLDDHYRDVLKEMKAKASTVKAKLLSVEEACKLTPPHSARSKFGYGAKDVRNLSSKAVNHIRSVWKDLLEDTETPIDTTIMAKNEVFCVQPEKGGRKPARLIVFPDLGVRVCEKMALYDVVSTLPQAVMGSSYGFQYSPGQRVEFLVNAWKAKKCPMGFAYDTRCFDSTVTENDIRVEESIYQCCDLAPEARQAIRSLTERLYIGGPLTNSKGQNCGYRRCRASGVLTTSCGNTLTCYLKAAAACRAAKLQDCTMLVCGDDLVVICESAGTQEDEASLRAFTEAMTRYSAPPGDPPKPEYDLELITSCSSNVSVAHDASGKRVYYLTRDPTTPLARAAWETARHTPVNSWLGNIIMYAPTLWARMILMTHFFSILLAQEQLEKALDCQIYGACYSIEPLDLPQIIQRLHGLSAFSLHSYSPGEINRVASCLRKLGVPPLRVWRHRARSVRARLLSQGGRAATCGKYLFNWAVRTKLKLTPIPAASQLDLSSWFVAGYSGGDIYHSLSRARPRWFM

Structure (SMILES)	IC50 ([1]; Table 1a) [µM]	EC50 (HCV replicon cells; Table 1a) [µM]	IC50 ([1]; Table 1b) [µM]	EC50 (HCV replicon cells; Table 1b) [µM]	other results
CNC(=O)c1c(-c2ccc(F)cc2)oc2ccc(-c3cccc(C(=O)Nc4cccc(C(=O)O)c4O)c3)cc12	0.25 to 1	> 10	–	–	–
CNC(=O)c1c(-c2ccc(F)cc2)oc2cc(NS(C)(=O)=O)c(-c3cc(C(=O)NCC(C)C)ccc3OC)cc12	–	–	< 0.25	< 0.25	–
CNC(=O)c1c(-c2ccc(F)cc2)oc2ccc(-c3cc(C(=O)NCC(C)C)ccc3OCCc3c(C)n[nH]c3C)cc12	–	–	< 0.25	< 0.25	–
CNC(=O)c1c(-c2ccc(F)cc2)oc2ccc(-c3ccc(-c4ccccc4OC)c(C(=O)NCC(C)C)c3)cc12	–	–	< 0.25	< 0.25	–
CCCOc1ccc(C(=O)NCC(C)C)cc1-c1ccc2oc(-c3ccc(F)cc3)c(C(=O)NC)c2c1	–	–	1 to 10	0.25 to 1	–
CNC(=O)c1c(-c2ccc(F)cc2)oc2ccc(-c3cc(C(=O)NC4(c5ccccn5)CC4)c(OCC(N)=O)cc3C)cc12	–	–	–	–	IC50 ([1]; Table 1d (class symbols)): < 0.02 µM; EC50 (HCV replicon cells; 24 h, Table 1d (class symbols)): 0.001 to 0.25 µM
CNC(=O)c1c(-c2ccc(F)cc2)oc2ccc(-c3ccc(CNS(C)(=O)=O)cc3)cc12	> 10	> 1.23	–	–	–
CNC(=O)c1c(-c2ccc(F)cc2)oc2ccc(-c3cccc(C(=O)NC(CC(C)C)C(N)=O)c3)cc12 (stereo not drawn)	0.25 to 1	0.25 to 1	–	–	–
CNC(=O)c1c(-c2ccc(F)cc2)oc2ccc(-c3cc(C(=O)NC4(c5ccccn5)CC4)c(OC)cc3C)cc12	–	–	< 0.25	< 0.25	–
CNC(=O)c1c(-c2ccc(F)cc2)oc2ccc(-c3ccc(-c4ccccc4C(N)=O)c(C(=O)NCC(C)C)c3)cc12	–	–	< 0.25	< 0.25	–
CNC(=O)Nc1c(-c2ccc(F)cc2)oc2ccc(OC(C)C)cc12	> 10	> 10	–	–	–
CNC(=O)c1c(-c2ccc(F)cc2)oc2ccc(-c3cc(OCCn4ccnc4)cc(C(=O)NCC(C)C)c3)cc12	–	–	1 to 10	1 to 10	–
CCCC[C@H](CO)NC(=O)c1cccc(-c2ccc3oc(-c4ccc(F)cc4)c(C(=O)NC)c3c2)c1 [drawing 614]	–	–	–	–	IC50 ([1]; untitled table after Table 1b): 0.6 µM; EC50 (HCV replicon cells; [2]): 1.26 µM
CNC(=O)c1c(-c2ccc(F)cc2)oc2ccc(-c3cccc(-c4ccn[nH]4)c3)cc12	–	–	1 to 10	1 to 10	–
CNC(=O)c1c(-c2ccc(F)cc2)oc2ccc(-c3cccc(C(=O)NS(C)(=O)=O)c3)cc12	0.25 to 1	> 10	–	–	–
CNC(=O)c1c(-c2ccc(F)cc2)oc2ccc(-c3cc(C(=O)NC4(C(=O)O)CC4)ccc3C)cc12	–	–	< 0.25	1 to 10	–
CNC(=O)c1c(-c2ccc(F)cc2)oc2ccc(-c3cc(C(=O)NC4(c5ccccn5)CC4)c(OC(C)C)cc3C)cc12	–	–	< 0.25	< 0.25	–
CNC(=O)c1c(-c2ccc(F)cc2)oc2ccc(-c3cccc(C(=O)NCC4CCCCC4)c3)cc12	< 0.25	0.25 to 1	–	–	–
CNC(=O)c1c(-c2ccc(F)cc2)oc2ccc(-c3ccc(C(=O)N4CCC[C@@H]4COC)cc3)cc12 [drawing 288]	> 10	> 10	–	–	–
CNC(=O)c1c(-c2ccc(F)cc2)oc2ccc(-c3cc(C(=O)NC4(c5ccccc5)CC4)ccc3OC(F)(F)F)cc12	–	–	0.25 to 1	< 0.25	–
CNC(=O)c1c(-c2ccc(F)cc2)oc2ccc(-c3cc(C(=O)NC4(c5nnc(C6CC6)[nH]5)CC4)ccc3C)cc12	–	–	< 0.25	< 0.25	–
CNC(=O)c1c(-c2ccc(F)cc2)oc2ccc(-c3cc(F)cc(C(=O)NC4(c5ccccn5)CC4)c3)cc12	–	–	< 0.25	< 0.25	–
CNC(=O)c1c(-c2ccc(F)cc2)oc2ccc(-c3cc(OC)ncc3Cl)cc12	> 10	> 1.23	–	–	–
CNC(=O)c1c(-c2ccc(F)cc2)oc2ccc(-c3cc(C(=O)NC4(C#N)CC4)ccc3C)cc12	–	–	< 0.25	< 0.25	–
CNC(=O)c1c(-c2ccc(F)cc2)oc2ccc(-c3cccc(C(=O)NCCc4ccccc4)c3)cc12	> 10	> 10	–	–	–
CNC(=O)c1c(-c2ccc(F)cc2)oc2ccc(-c3ccccn3)cc12	1 to 10	0.25 to 1	–	–	–

Structure (SMILES)	IC50 ([1]; Table 1a) [µM]	EC50 (HCV replicon cells; Table 1a) [µM]	IC50 ([1]; Table 1b) [µM]	EC50 (HCV replicon cells; Table 1b) [µM]	other results
CNC(=O)c1c(-c2ccc(F)cc2)oc2ccc(-c3ccc(C(=O)NCCc4ccccc4Cl)cc3)cc12	> 10	> 10	–	–	–
CCN(CC)C(=O)c1ccc(-c2ccc3oc(-c4ccc(F)cc4)c(C(=O)NC)c3c2)cc1	1 to 10	> 10	–	–	–
CNC(=O)c1c(-c2ccc(F)cc2)oc2ccc(-c3cc(C(=O)NC4(c5ccccn5)CC4)ccc3C)cc12 [drawing 425]	–	–	< 0.25	< 0.25	–
CNC(=O)c1c(-c2ccc(F)cc2)oc2ccc(-c3cc(C(=O)NC4(c5ccccn5)CC4)ccc3OCCO)cc12	–	–	< 0.25	< 0.25	–
CNC(=O)c1c(-c2ccc(F)cc2)oc2ccc(-c3ccc(C(=O)NCCO)cc3)cc12	> 10	1 to 10	–	–	–
CNC(=O)c1c(-c2ccc(F)cc2)oc2ccc(-c3cccc(C(=O)NC4CCCCCC4)c3)cc12	< 0.25	< 0.25	–	–	–
CNC(=O)c1c(-c2ccc(F)cc2)oc2ccc(-c3cc(C(=O)NC4(c5ncccn5)CC4)c(C)cc3C)c(F)c12	–	–	0.25 to 1	< 0.25	–
CNC(=O)c1c(-c2ccc(F)cc2)oc2ccc(-c3cccc(C(=O)N4CC[C@@H](O)C4)c3)cc12	1 to 10	1 to 10	–	–	–
CNC(=O)c1c(-c2ccc(F)cc2)oc2ccc(-c3cc(C(=O)NCC(C)C)ccc3OCCc3ccccn3)cc12	–	–	0.25 to 1	< 0.25	–
CNC(=O)c1c(-c2ccc(F)cc2)oc2ccc(-c3cncc(C(=O)NC(C)(C)C)c3)cc12	–	–	< 0.25	< 0.25	–
CNC(=O)c1c(-c2ccc(F)cc2)oc2ccc(-c3cc(C(=O)NC4(c5ccccn5)CC4)c(-c4ccccc4Cl)cc3C)cc12	–	–	< 0.25	< 0.25	–
CCN1CCN(C(=O)c2cccc(-c3ccc4oc(-c5ccc(F)cc5)c(C(=O)NC)c4c3)c2)CC1	1 to 10	1 to 10	–	–	–
CNC(=O)c1c(-c2ccc(F)cc2)oc2ccc(-c3cccc(S(=O)(=O)NC(C)C)c3)cc12	> 10	> 10	–	–	–
CNC(=O)c1c(-c2ccc(F)cc2)oc2ccc(-c3cc(OC[C@@H]4CCCN4)cc(C(=O)NCC(C)C)c3)cc12	–	–	1 to 10	1 to 10	–
CNC(=O)c1c(-c2ccc(F)cc2)oc2ccc(-c3cccc(C(=O)N4CCc5ccccc54)c3)cc12	1 to 10	0.25 to 1	–	–	–
CNC(=O)c1c(-c2ccc(F)cc2)oc2ccc(-c3cccc(-c4nc(-c5ccccc5)c[nH]4)c3)cc12	–	–	0.25 to 1	< 0.25	–
CNC(=O)c1c(-c2ccc(F)cc2)oc2ccc(-c3ccc(C(=O)O)c(F)c3)cc12	1 to 10	> 10	–	–	–
CNC(=O)c1c(-c2ccc(F)cc2)oc2cc(N(CCO)S(C)(=O)=O)c(-c3cccc(C(=O)NC4(c5ccc(F)cc5)CC4)c3)cc12	–	–	< 0.25	< 0.25	–
CNC(=O)c1c(-c2ccc(F)cc2)oc2ccc(-c3cc(OCCN(C)C)cc(C(=O)NCC(C)C)c3)cc12	–	–	0.25 to 1	0.25 to 1	–
CNC(=O)c1c(-c2ccc(F)cc2)oc2ccc(-c3cc(C(=O)NCC(C)C)ccc3OCCOC)cc12	–	–	0.25 to 1	< 0.25	–
CNC(=O)c1c(-c2ccc(F)cc2)oc2ccc(-c3ccc(-c4ccccc4NC(C)=O)c(C(=O)NCC(C)C)c3)cc12	–	–	0.25 to 1	1 to 10	–
CCC(NC(=O)c1ccc(F)c(-c2cc3c(C(=O)NC)c(-c4ccc(F)cc4)oc3cc2N)c1)c1ccccc1 (stereo not drawn)	–	–	< 0.25	< 0.25	–
CNC(=O)c1c(-c2ccc(F)cc2)oc2ccc(-c3cc(C(=O)NC4(c5ccccn5)CC4)c(F)cc3C)cc12	–	–	< 0.25	< 0.25	–
CNC(=O)c1c(-c2ccc(F)cc2)oc2ccc(-c3cc(C(=O)NC4(c5ccccc5)CC4)ccc3F)cc12 [drawing 609]	–	–	–	–	IC50 ([1]; untitled table after Table 1b): 0.02 µM; EC50 (HCV replicon cells; [2]): 0.00357 µM
CNC(=O)c1c(-c2ccc(F)cc2)oc2ccc(-c3cccc(C(=O)NCC4CC4)c3)cc12	< 0.25	< 0.25	–	–	–
